Assay results published in patent publication US20240132464A1, “HETEROCYCLIC COMPOUNDS AS E3 LIGASE INHIBITORS” (Accutar Biotechnology Inc., priority 2022, published 2024).

Biological target: T1, GID4 (Uniprot ID: Q81VV7, residues 124-289) (Homo sapiens, UniProt Q8IVV7)
T1 construct: GID4 (Uniprot ID: Q81VV7, residues 124-289)
T1 sequence (Q8IVV7 124-289): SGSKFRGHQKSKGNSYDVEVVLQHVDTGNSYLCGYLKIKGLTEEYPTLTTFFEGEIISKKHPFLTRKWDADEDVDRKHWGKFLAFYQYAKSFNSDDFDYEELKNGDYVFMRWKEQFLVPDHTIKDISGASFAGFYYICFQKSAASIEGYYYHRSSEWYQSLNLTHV
Assay: GID4 competitive binding assay (AlphaScreen, GID4/degron peptide PGLW)
Conditions: 24 nM GID4, 48 nM biotinylated degron peptide PGLW, 4° C., read-out: IC50 (Inhibition of GID4/Degron binding by test compounds)
Method in brief: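 Displacement of biotin-tagged degron tetrapeptide PGLW (48 nM) from C-terminally 6His-tagged GID4 124-289 (24 nM) read by AlphaScreen proximity signal. Compound incubation 2 h, then beads 1 h, all at 4 °C, pH 7.5, 2% DMSO final; background-corrected inhibition fitted with variable slope for IC50.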

Compound	IC50 [nM]
Nc1nc(NCC2CC2)cc(N2CCNC(c3ccccc3Br)C2)n1 (single isomer, unassigned) [Compound 111, (R/S)-6-(3-(2-bromophenyl)piperazin-1-yl)-N4-(cyclopropylmethyl)pyrimidine-2,4-diamine]	500 to 5000
CC(C)c1cc(N2CCNC(c3ccccc3Br)C2)nc(N)n1 (stereo not shown) [Compound 183, 4-(3-(2-bromophenyl)piperazin-1-yl)-6-isopropylpyrimidin-2-amine]	< 500
Nc1nc2c(c(N3CCCC(c4ccn[nH]4)C3)n1)CSC2 (stereo not shown) [Compound 199, 4-(3-(1H-pyrazol-5-yl)piperidin-1-yl)-5,7-dihydrothieno[3,4-d]pyrimidin-2-amine]	> 5000
Cc1cc(N2CCCC(c3cnc4ccccn34)C2)nc(N)n1 (stereo not shown) [Compound 147, 4-(3-(imidazo[1,2-a]pyridin-3-yl)piperidin-1-yl)-6-methylpyrimidin-2-amine]	500 to 5000
CCOc1ccc(Br)c(C2CN(c3cc(C(C)C)nc(N)n3)CCN2)c1 (single isomer, unassigned) [Compound 25, (R/S)-4-(3-(2-bromo-5-ethoxyphenyl)piperazin-1-yl)-6-isopropylpyrimidin-2-amine]	< 500
CNc1cc(N2CCN(C)C(c3ccccc3)C2)nc(N)n1 (stereo not shown) [Compound 110, N4-methyl-6-(4-methyl-3-phenylpiperazin-1-yl)pyrimidine-2,4-diamine]	500 to 5000
CCOc1ccc(Br)c(C2CN(c3cc(N)nc(N)n3)CCN2)c1 (single isomer, unassigned) [Compound 23, (R/S)-6-(3-(2-bromo-5-ethoxyphenyl)piperazin-1-yl)pyrimidine-2,4-diamine]	500 to 5000
CC(C)c1nc(N)cc(N2CCNC(c3ccccc3Br)C2)n1 (single isomer, unassigned) [Compound 76, (R/S)-6-(3-(2-bromophenyl)piperazin-1-yl)-2-isopropylpyrimidin-4-amine]	< 500
CCOc1ccc(Br)c(C2CN(c3cc(N)nc(N)n3)CCN2)c1 (single isomer, unassigned) [Compound 24, (S/R)-6-(3-(2-bromo-5-ethoxyphenyl)piperazin-1-yl)pyrimidine-2,4-diamine]	< 500
CN1CCN(c2cc(NC3CC3)nc(N)n2)CC1c1ccccc1Br (stereo not shown) [Compound 101, 6-(3-(2-bromophenyl)-4-methylpiperazin-1-yl)-N4-cyclopropylpyrimidine-2,4-diamine]	< 500
CC(C)c1cc(N2CCNC(c3c[nH]c4ccccc34)C2)nc(N)n1 (stereo not shown) [Compound 138, 4-(3-(1H-indol-3-yl)piperazin-1-yl)-6-isopropylpyrimidin-2-amine]	500 to 5000
CNc1cc(N2CCO[C@@H](c3ccccc3)C2)nc(N)n1 (racemic) [Compound 109, (S/R)-N4-methyl-6-(2-phenylmorpholino)pyrimidine-2,4-diamine]	500 to 5000
Nc1nc2c(c(N3CCNC(c4ccccc4Br)C3)n1)CSC2 (stereo not shown) [Compound 189, 4-(3-(2-bromophenyl)piperazin-1-yl)-5,7-dihydrothieno[3,4-d]pyrimidin-2-amine]	> 5000
CC(C)c1cc(N2CCNC(c3cc(F)ccc3Br)C2)nc(N)n1 (stereo not shown) [Compound 174, 4-(3-(2-bromo-5-fluorophenyl)piperazin-1-yl)-6-isopropylpyrimidin-2-amine]	500 to 5000
CC(C)c1cc(N2CCCC(O)(c3ncn4ccccc34)C2)nc(N)n1 (stereo not shown) [Compound 224, 1-(2-amino-6-isopropylpyrimidin-4-yl)-3-(imidazo[1,5-a]pyridin-1-yl)piperidin-3-ol]	> 5000
Nc1nc2c(c(N3CCCC(c4ccn[nH]4)C3)n1)CCC2 (stereo not shown) [Compound 195, 4-(3-(1H-pyrazol-5-yl)piperidin-1-yl)-6,7-dihydro-5H-cyclopenta[d]pyrimidin-2-amine]	> 5000
O=C1NCCc2cc(-c3cccc(C(=O)N4CCCC4)c3)ccc21 [Compound 278, 6-(3-(pyrrolidine-1-carbonyl)phenyl)-3,4-dihydroisoquinolin-1(2H)-one]	500 to 5000
CC(C)c1cc(N2CCNC(c3cnc4ccccn34)C2)c2cc[nH]c2n1 (single isomer, unassigned) [Compound 372, (S/R)-3-(4-(6-isopropyl-1H-pyrrolo[2,3-b]pyridin-4-yl)piperazin-2-yl)imidazo[1,2-a]pyridine]	< 500
CNC(=O)c1ccc2nnc(C3CCCN(c4cc(C(C)C)nc(N)n4)C3)n2c1 (stereo not shown) [Compound 166, 3-(1-(2-amino-6-isopropylpyrimidin-4-yl)piperidin-3-yl)-N-methyl-[1,2,4]triazolo[4,3-a]pyridine-6-carboxamide]	> 5000
CC(C)c1cc(N2CCOC(c3cnc4ccccn34)C2)nc(N)n1 (racemic) [Compound 156, (R/S)-4-(2-(imidazo[1,2-a]pyridin-3-yl)morpholino)-6-isopropylpyrimidin-2-amine]	> 5000

Results, then the compound that gave them:

IC50 [nM]	Compound
< 500	CN1CC(CNC(=O)c2ccc(-c3cc(O)c4ncccc4c3)cc2)C1 [Compound 298, 4-(8-hydroxyquinolin-6-yl)-N-((1-methylazetidin-3-yl)methyl)benzamide]
> 5000	CN1CCN(CCc2cccc(-c3ccc4ccnc(N)c4c3)c2)CC1 [Compound 344, 7-(3-(2-(4-methylpiperazin-1-yl)ethyl)phenyl)isoquinolin-1-amine]
> 5000	CN(C)CCCNC(=O)c1ccc(-c2cc(O)c3c(c2)CCCN3)cc1 [Compound 284, N-(3-(dimethylamino)propyl)-4-(8-hydroxy-1,2,3,4-tetrahydroquinolin-6-yl)benzamide]
< 500	CN(C)CCNC(=O)c1ccc(-c2cc(O)c3ncnc(N)c3c2)cc1 [Compound 267, 4-(4-amino-8-hydroxyquinazolin-6-yl)-N-(2-(dimethylamino)ethyl)benzamide]
< 500	CN1CC(CNC(=O)c2n[nH]c3ccc(-c4ccc5ccnc(N)c5c4)cc23)C1 [Compound 334, 5-(1-aminoisoquinolin-7-yl)-N-((1-methylazetidin-3-yl)methyl)-1H-indazole-3-carboxamide]
500 to 5000	CCCNC(=O)c1ccc(-c2cc(O)c3ncccc3c2)cc1 [Compound 302, 4-(8-hydroxyquinolin-6-yl)-N-propylbenzamide]
< 500	Nc1nccc2ccc(-c3ccc4[nH]nc(C(=O)N5CCC(O)CC5)c4c3)cc12 [Compound 336, (5-(1-aminoisoquinolin-7-yl)-1H-indazol-3-yl)(4-hydroxypiperidin-1-yl)methanone]
> 5000	Nc1nccc2c(O)cc(-c3cccc(C(=O)N4CCCC4)c3)cc12 [Compound 266, (3-(1-amino-5-hydroxyisoquinolin-7-yl)phenyl)(pyrrolidin-1-yl)methanone]
< 500	CN(C)CCCCNC(=O)c1ccc(-c2cc(O)c3ncccc3c2)cc1 [Compound 289, N-(4-(dimethylamino)butyl)-4-(8-hydroxyquinolin-6-yl)benzamide]
< 500	CN(C)CCCNC(=O)c1ccc(-c2cc3cccnc3c(O)c2F)cc1 [Compound 308, N-(3-(dimethylamino)propyl)-4-(7-fluoro-8-hydroxyquinolin-6-yl)benzamide]
< 500	CN(C)[C@H]1C[C@H](NC(=O)c2ccc(-c3cc(O)c4ncccc4c3)cc2)C1 [Compound 280, N-(trans-3-(dimethylamino)cyclobutyl)-4-(8-hydroxyquinolin-6-yl)benzamide]
